Laboratory results reported in US10675244B2, “Microvesicles derived from nucleated, mammalian cells and use thereof” (MDIMUNE INC., priority 2009, dated 2020).

Key:
[1] = test system: Mouse colon 26 cell line; test: Growth of colon 26 cancer tissue, comparison with doxorubicin (Example 21); assay type: in vivo, mice
Protocol: The mouse colon 26 cell line used in Example 18 was subcutaneously injected at a dose of 1×10^6 cells into mice and cultured for 5 days.
After cultivation for 5 days, PBS, PBS containing 10 μg of the extruded microvesicles loaded with 3 μg of doxorubicin (doxorubicin-microvesicle), or PBS containing 3, 15 or 60 μg of doxorubicin was injected at a dose of 100 μl once every day via the tail vein into mouse groups, each consisting of 5. The volume of cancer tissue was monitored once every two days. The tumor volume was calculated by the equation v=1s^2/2 wherein (1) is a length of the longest axis of a tumor and (s) is a length of the axis perpendicular to the longest axis.

[2] = 6 hours after tail vein injection; 100 μg microvesicles or 30 μg doxorubicin
Protocol: After cultivation for 10 days, PBS, PBS containing 100 μg of the extruded microvesicles (doxorubicin-microvesicle), or PBS containing 30 μg of doxorubicin was injected at a dose of 100 μl into mice via the tail vein.
Six hours after the injection, cancer tissue, the spleen and the heart were excised from the mice and fixed for 24 hours in 4% paraformaldehyde. For dehydration, the fixed tissues were immersed once in 70% ethanol, four times in 95% ethanol, three times in 100% ethanol, and three times in 100% xylene, each time for one hour in all cases. Thereafter, the tissues were embedded in paraffin, cut into sections 4 μm thick, and attached onto slide glass. The paraffin was melted by incubation at 60° C. for one hour. For hydration, the tissues were immersed three times in 100% xylene, four times in 100% ethanol, and three times in 95% ethanol, each time for one min in all cases, followed by storage for 5 min in flowing water.
After the hydration, the tissues were subjected to immunohistochemistry to examine whether doxorubicin was delivered to each tissue. In this regard, antigen retrieval was performed using a microwave method. The tissues were placed in 10 mM sodium citrate buffer and irradiated three times, each for five min, with microwaves. The tissues were cooled in flowing water and blocked for 2 hours with TBS containing 5% horse serum and 0.02% Triton X-100. […]

[3] = White blood cell count in blood of treated mice; assay type: in vivo; conditions: 60 μg of doxorubicin daily
Protocol: Mice were anesthetized by abdominal injection of 150 μL of an anesthetic comprising a mixture of 1:3:6 ketamine:rumpon:PBS, and blood samples were taken from the heart and placed in tubes containing an anti-coagulant agent. A mixture of 10 μL of blood and 90 μL of 1% HCl was stored at room temperature for 7 min, and after 10 μL of the mixture was put into a hematocytometer, and white cells were counted.

doxorubicin delivered to the heart [2]: delivered in a large amount to the heart | doxorubicin in cancer blood vessels [2]: cannot by itself be delivered | reduction of white blood cell count compared to the control [3]: at least 50%
Structure (SMILES): COc1cccc2c1C(=O)c1c(O)c3c(c(O)c1C2=O)C[C@@](O)(C(=O)CO)C[C@@H]3O[C@H]1C[C@H](N)[C@H](O)[C@H](C)O1 [doxorubicin]
equi-effective doxorubicin dose relative to the load of doxorubicin on the microvesicles ([1]; 60 μg versus 3 μg load): 20 fold | dose of doxorubicin alone with the same therapeutic effect as the doxorubicin-loaded microvesicles ([1]; daily tail vein injection, colon 26 tumor): 60 µg
